# Values quoted from earlier work in patent publication US20240016743A1, “A METHOD FOR PRODUCING ENTACAPONE TABLETS” (CHINA MEHECO KANGLI PHARMA CO., LTD, priority 2021, published 2024).
# Conditions: clinical trials
compound,measurement,value
N[C@@H](Cc1ccc(O)c(O)c1)C(=O)O [levodopa],"prolong the ""On"" time",16%
same,"shorten the ""Off"" time",24%
